Here are results for eight molecules from patent US8785631B2, “Oxazolone derivative compounds having a 3-oxa-1-azaspiro[4.5] core” (Seikagaku Corporation, priority 2006, dated 2014).

One assay has as its target T1, Human cathepsin B (Homo sapiens, UniProt P07858).
T1 construct: purchased Calbiochem Corp
Put plainly: Measurement of cathepsin B inhibitory activity. It is filed as biochemical. Particulars: selectivity ratio B/K. Here is the method:
(§1) Human cathepsin B (Calbiochem Corp.) was used for measurement. Activity was measured based on decomposition of the fluorescent substrate Z-Arg-Arg-MCA (Peptide Institute, Inc.) in compliance with the method of Barrett, et al.^3). Namely, the decomposition of 20 mM Z-Arg-Arg-MCA by cathepsin B was measured in 100 mM sodium potassium phosphate, 1 mM EDTA, 8 mM cysteine and 0.005% Brij35 at pH 6.0. The reaction was carried out for 30 minutes at 30° C., and stopped by the addition of 2×10^−5 M Calpeptin. After stopping the reaction, fluorescent intensity was measured at an excitation wavelength of 355 nm and measurement wavelength of 460 nm. Inhibition of cathepsin B by the compounds was examined using the reaction system described above.

A further assay addresses T2, Human cathepsin L (Homo sapiens, UniProt P07711).
T2 construct: purchased Calbiochem Corp
Put plainly: Measurement of cathepsin L inhibitory activity. The class given is biochemical. Particulars: selectivity ratio L/K. The protocol:
as §1, with “cathepsin L” for “cathepsin B”, “substrate Z-Phe-Arg-MCA” for “substrate Z-Arg-Arg-MCA”, “[…] Z-Phe-Arg-MCA” for “mM Z-Arg-Arg-MCA”, “sodium acetate, 5” for “sodium potassium phosphate, 1”, “EDTA, 4 mM urea,” for “EDTA,”, “pH 5.5.” for “pH 6.0.”

*1 amine or outer side, *2 acyl side, *3 side chain or, on linkers, in order; H or OH if unused. Where a SMILES comes first, the peptide text is derived from it. [ ]: non-standard residue; d: D form. The star is where a group is joined. Ac6c = NC1(C(=O)O)CCCCC1; Morpholide = C1CN(*)CCO1; Nle = CCCC[C@H](N)C(=O)O; Cbz = O=C(OCc1ccccc1)*; CO = O=C([*:1])[*:2]

T2 sequence (P07711 114-333): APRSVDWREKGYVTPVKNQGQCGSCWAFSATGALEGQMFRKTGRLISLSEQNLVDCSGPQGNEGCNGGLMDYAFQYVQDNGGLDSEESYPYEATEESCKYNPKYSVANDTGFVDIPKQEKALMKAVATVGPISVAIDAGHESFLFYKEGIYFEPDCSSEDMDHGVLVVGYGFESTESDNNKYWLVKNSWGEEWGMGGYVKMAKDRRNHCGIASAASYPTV

Regarding `CCCC[C@@H](C=O)NC(=O)[C@H](CC(C)C)NC(=O)N1CCOCC1` [Reference Example 150, N—[N-(4-Morpholinylcarbonyl)-L-leucyl]-L-norleucinal], at Human cathepsin B, the “B/K (ratio of IC50 cathepsin B to cathepsin K)” value is reported as 4.3. Also, the “L/K (ratio of IC50 cathepsin L to cathepsin K)” value at Human cathepsin L came to 7.3.

Take `CC(C)[C@@H](C=O)NC(=O)C1(NC(=O)c2ccco2)CCCCC1` [Reference Example 146, N-[[1-[(2-Furanylcarbonyl)amino]cyclohexyl]carbonyl]-L-valinal]: the “B/K (ratio of IC50 cathepsin B to cathepsin K)” value at Human cathepsin B turned out to be 87. Also, the “L/K (ratio of IC50 cathepsin L to cathepsin K)” value at Human cathepsin L is recorded as 370.

On to `CC(C)C[C@H](NC(=O)OCc1ccccc1)C(=O)N[C@H](C=O)C(C)C` [Reference Example 148, N—[N-[(Phenylmethoxy)carbonyl]-L-leucyl]-L-valinal] (Cbz-Leu-Val-aldehyde), for which, at Human cathepsin B, the “B/K (ratio of IC50 cathepsin B to cathepsin K)” value is 58. In addition, the “L/K (ratio of IC50 cathepsin L to cathepsin K)” value at Human cathepsin L was 74.

Regarding `CCCC[C@@H](C=O)NC(=O)C1(NC(=O)OCc2ccccc2)CCCCC1` [Reference Example 145, N-[[1-[[(Phenylmethoxy)carbonyl]amino]cyclohexyl]carbonyl]-L-norleucinal] (Cbz-[Ac6c]-[Nle]-aldehyde), the “B/K (ratio of IC50 cathepsin B to cathepsin K)” value at Human cathepsin B is listed as 35. Besides, the “L/K (ratio of IC50 cathepsin L to cathepsin K)” value at Human cathepsin L is recorded as 50.

On to `CC(C)C[C@H](NC(=O)c1ccco1)C(=O)N[C@H](C=O)C(C)C` [Reference Example 151, N—[N-(2-Furanylcarbonyl)-L-leucyl]-L-valinal], for which the “B/K (ratio of IC50 cathepsin B to cathepsin K)” value at Human cathepsin B is recorded as 30. Also, the “L/K (ratio of IC50 cathepsin L to cathepsin K)” value on Human cathepsin L is 35.

As to `CC(C)[C@@H](C=O)NC(=O)C1(NC(=O)OCc2ccccc2)CCCCC1` [Reference Example 144, N-[[1-[[(Phenylmethoxy)carbonyl]amino]cyclohexyl]carbonyl]-L-valinal] (Cbz-[Ac6c]-Val-aldehyde), the “B/K (ratio of IC50 cathepsin B to cathepsin K)” value at Human cathepsin B was 230. The “L/K (ratio of IC50 cathepsin L to cathepsin K)” value at Human cathepsin L amounted to 400.

Turning to `CCCC[C@@H](C=O)NC(=O)C1(NC(=O)N2CCOCC2)CCCCC1` [Reference Example 147, N-[[1-[(4-Morpholinylcarbonyl)amino]cyclohexyl]carbonyl]-L-norleucinal] ({Morpholide-CO}-[Ac6c]-[Nle]-aldehyde), the “B/K (ratio of IC50 cathepsin B to cathepsin K)” value at Human cathepsin B is recorded as 12. Besides, the “L/K (ratio of IC50 cathepsin L to cathepsin K)” value at Human cathepsin L is 21.

In the case of `CCCC[C@@H](C=O)NC(=O)[C@H](CC(C)C)NC(=O)OCc1ccccc1` [Reference Example 149, N—[N-[(Phenylmethoxy)carbonyl]-L-leucyl]-L-norleucinal], at Human cathepsin B, the “B/K (ratio of IC50 cathepsin B to cathepsin K)” value was 11. In addition, the “L/K (ratio of IC50 cathepsin L to cathepsin K)” value at Human cathepsin L is recorded as 15.
